Reference: ChEMBL document CHEMBL5532696, “Discovery of new tricyclic spiroindole derivatives as potent P-glycoprotein inhibitors for reversing multidrug resistance enabled by a synthetic methodology-based library” (RSC Med Chem, 2024)
Calls of active or inactive are those of the source. No cut-off for these calls is given here.

Key:
[1] = system: Eca-109/VCR; assay: Inhibition of colony formation in human Eca-109/VCR cells at 0 to 12 nM incubated for 48 hrs by crystal violet staining based assay; assay type: functional, cell-based; details: dose 0-12 nM
[2] = system: Eca-109/VCR; assay: Antiproliferative activity against human Eca-109/VCR cells assessed as cell viability at 5 uM incubated for 48 hrs by CCK-8 assay (reference value: 100 +/- 1.8%); assay type: functional; details: read-out: Activity
[3] = system: Eca-109/VCR; assay: Reversal of vincristine resistance in human Eca-109/VCR cells assessed as reversal fold by measuring ratio of vincristine IC50 to vincristine IC50 in presence of test compound at 5 uM incubated for 48 hrs by CCK8 assay; assay type: functional
[4] = system: Eca-109/VCR; assay: Induction of apoptosis in human Eca-109/VCR cells assessed as viable cells at 5 uM incubated for 48 hrs by Annexin V-FITC/DAPI staining based flow cytometry analysis (reference value: 94.6 %); assay type: functional; details: read-out: Activity
[5] = system: Eca-109/VCR; assay: Induction of apoptosis in human Eca-109/VCR cells assessed as early apoptotic cells at 5 uM incubated for 48 hrs by Annexin V-FITC/DAPI staining based flow cytometry analysis (reference value: 0.97 %); assay type: functional
[6] = system: Eca-109/VCR; assay: Induction of apoptosis in human Eca-109/VCR cells assessed as late apoptotic cells at 5 uM incubated for 48 hrs by Annexin V-FITC/DAPI staining based flow cytometry analysis (reference value: 4.31 %); assay type: functional
[7] = system: Eca-109/VCR; assay: Induction of apoptosis in human Eca-109/VCR cells assessed as necrotic cells at 5 uM incubated for 48 hrs by Annexin V-FITC/DAPI staining based flow cytometry analysis (reference value: 0.073 %); assay type: functional
[8] = system: Eca-109/VCR; assay: Induction of apoptosis in human Eca-109/VCR cells assessed as viable cells at 5 uM incubated for 48 hrs in presence of vincristine at 50 nM by Annexin V-FITC/DAPI staining based flow cytometry analysis (reference value: 93.5 %); assay type: functional; details: read-out: Activity
[9] = system: Eca-109/VCR; assay: Induction of apoptosis in human Eca-109/VCR cells assessed as early apoptotic cells at 5 uM incubated for 48 hrs in presence of vincristine at 50 nM by Annexin V-FITC/DAPI staining based flow cytometry analysis (reference value: 1.33 %); assay type: functional
[10] = system: Eca-109/VCR; assay: Induction of apoptosis in human Eca-109/VCR cells assessed as late apoptotic cells at 5 uM incubated for 48 hrs in presence of vincristine at 50 nM by Annexin V-FITC/DAPI staining based flow cytometry analysis (reference value: 5.06 %); assay type: functional
[11] = system: Eca-109/VCR; assay: Induction of apoptosis in human Eca-109/VCR cells assessed as necrotic cells at 5 uM incubated for 48 hrs in presence of vincristine at 50 nM by Annexin V-FITC/DAPI staining based flow cytometry analysis (reference value: 0.062 %); assay type: functional
[12] = system: Eca-109/VCR; assay: Antiproliferative activity against human Eca-109/VCR cells assessed as reduction in cell viability at 10 uM incubated for 48 hrs by CCK-8 assay; assay type: functional, cell-based

Compound | inhibition [1] | viability at 5 µM [2] | Ratio IC50 [3] | viability at 5 µM [4] | Activity [5] | Activity [6] | Activity [7] | viability at 5 µM [8] | Activity [9] | Activity [10] | Activity [11] | Activity [12]
CC[C@]1(O)C[C@H]2CN(CCc3c([nH]c4ccccc34)[C@@](C(=O)OC)(c3cc4c(cc3OC)N(C=O)[C@H]3[C@@](O)(C(=O)OC)[C@H](OC(C)=O)[C@]5(CC)C=CCN6CC[C@]43[C@@H]65)C2)C1 | inactive |  |  |  |  |  |  |  |  |  |  | 
COc1cc2c(cc1OC)CN(CCc1ccc(NC(=O)c3cc(OC)c(OC)cc3NC(=O)c3cnc4ccccc4c3)cc1)CC2 [TARIQUIDAR] |  | 84.8% | 364.3 | 92.3% | 4.28% | 3.35% | 0.1% | 79% | 13.8% | 6.59% | 0.68% | 
COc1ccc(CCN(C)CCCC(C#N)(c2ccc(OC)c(OC)c2)C(C)C)cc1OC (centres undefined) [VERAPAMIL] |  | 98.9% | 107.9 | 94% | 2.86% | 3.05% | 0.049% | 83.6% | 12.1% | 3.93% | 0.32% | 
CN1C(=O)[C@@]2(c3cc(Cl)ccc31)[C@H](c1ccccc1)[C@H]1C(=O)c3cc([N+](=O)[O-])ccc3[C@H]1[C@@H]2C(=O)NC(C)(C)C |  | 96.7% | 471.3 |  |  |  |  |  |  |  |  | inactive
